Laboratory results taken from ChEMBL document CHEMBL4613206, “Recent applications of hydantoin and thiohydantoin in medicinal chemistry” (Eur J Med Chem, 2019).
≈ marks a conversion by molar mass, not a printed value.

Columns and labels:
[1] = tested on: Mus musculus; assay: Antitussive activity in ammonia aerosol-stimulated Kunming mouse assessed as inhibition of number of cough administered as po dose 1 hr before ammonia aerosol stimulation (reference value: 42); assay type: functional
[2] = tested on: Mus musculus; assay: Anti-inflammatory activity in xylene-induced Kunming mouse assessed as inhibition of ear edema administered as po dose 1 hr before xylene administration and measured after 1 hr xylene administration relative to control; assay type: functional; parameters: scale not given: the % may be the effect or the level left
[3] = tested on: Staphylococcus aureus; assay: Antibacterial activity against methicillin resistant Staphylococcus aureus ATCC 43300; assay type: functional
[4] = tested on: Enterococcus faecalis; assay: Antibacterial activity against Enterococcus faecalis ATCC 29212; assay type: functional
[5] = tested on: Staphylococcus aureus; assay: Antibacterial activity against Staphylococcus aureus ATCC 25923; assay type: functional
[6] = tested on: Escherichia coli; assay: Antibacterial activity against Escherichia coli ATCC 25922; assay type: functional
[7] = tested on: Pseudomonas aeruginosa; assay: Antibacterial activity against Pseudomonas aeruginosa ATCC 27853; assay type: functional
[8] = tested on: HEp-2; assay: Cytotoxicity against human Hep2 cells assessed as reduction in cell viability by MTT assay; assay type: functional, cell-based
[9] = tested on: Escherichia coli; assay: Antibacterial activity against Escherichia coli; assay type: functional
[10] = tested on: Staphylococcus aureus; assay: Antibacterial activity against Staphylococcus aureus; assay type: functional
[11] = biological target: T1, Tyrosinase (Homo sapiens, UniProt P14679); assay: Inhibition of tyrosinase (unknown origin)
T1 sequence (P14679 whole entry): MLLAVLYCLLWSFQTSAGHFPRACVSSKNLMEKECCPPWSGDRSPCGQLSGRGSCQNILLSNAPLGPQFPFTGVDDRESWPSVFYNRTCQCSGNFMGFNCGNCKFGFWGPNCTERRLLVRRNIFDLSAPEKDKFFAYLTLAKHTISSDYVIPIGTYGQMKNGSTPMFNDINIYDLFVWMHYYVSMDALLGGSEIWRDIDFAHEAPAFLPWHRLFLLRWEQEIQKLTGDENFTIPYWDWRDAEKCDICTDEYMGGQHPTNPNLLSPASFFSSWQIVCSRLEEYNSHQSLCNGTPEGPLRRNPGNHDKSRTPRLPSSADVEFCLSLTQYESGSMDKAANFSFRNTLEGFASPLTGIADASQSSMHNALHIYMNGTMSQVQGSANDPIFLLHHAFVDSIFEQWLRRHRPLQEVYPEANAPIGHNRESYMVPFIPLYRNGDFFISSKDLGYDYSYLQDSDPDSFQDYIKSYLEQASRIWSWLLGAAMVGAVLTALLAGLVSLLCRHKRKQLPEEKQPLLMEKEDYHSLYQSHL

[12] = biological target: T2, NAD-dependent protein deacetylase sirtuin-2 (Homo sapiens, UniProt Q8IXJ6); assay: Inhibition of recombinant human SIRT2 after 30 mins
T2 sequence (Q8IXJ6 whole entry): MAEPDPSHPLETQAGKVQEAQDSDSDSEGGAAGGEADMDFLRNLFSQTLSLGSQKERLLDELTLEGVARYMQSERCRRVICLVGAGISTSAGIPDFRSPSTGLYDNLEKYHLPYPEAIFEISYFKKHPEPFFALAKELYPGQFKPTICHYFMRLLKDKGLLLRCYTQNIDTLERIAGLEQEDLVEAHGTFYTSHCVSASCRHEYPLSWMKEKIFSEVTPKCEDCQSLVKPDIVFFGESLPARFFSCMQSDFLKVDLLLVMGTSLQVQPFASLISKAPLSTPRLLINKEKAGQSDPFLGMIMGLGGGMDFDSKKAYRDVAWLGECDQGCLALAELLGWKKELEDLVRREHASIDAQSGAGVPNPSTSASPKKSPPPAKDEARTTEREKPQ

[13] = biological target: T3, NAD-dependent protein deacetylase sirtuin-1 (Homo sapiens, UniProt Q96EB6); assay: Inhibition of recombinant human SIRT1 after 30 mins
T3 sequence (Q96EB6 whole entry): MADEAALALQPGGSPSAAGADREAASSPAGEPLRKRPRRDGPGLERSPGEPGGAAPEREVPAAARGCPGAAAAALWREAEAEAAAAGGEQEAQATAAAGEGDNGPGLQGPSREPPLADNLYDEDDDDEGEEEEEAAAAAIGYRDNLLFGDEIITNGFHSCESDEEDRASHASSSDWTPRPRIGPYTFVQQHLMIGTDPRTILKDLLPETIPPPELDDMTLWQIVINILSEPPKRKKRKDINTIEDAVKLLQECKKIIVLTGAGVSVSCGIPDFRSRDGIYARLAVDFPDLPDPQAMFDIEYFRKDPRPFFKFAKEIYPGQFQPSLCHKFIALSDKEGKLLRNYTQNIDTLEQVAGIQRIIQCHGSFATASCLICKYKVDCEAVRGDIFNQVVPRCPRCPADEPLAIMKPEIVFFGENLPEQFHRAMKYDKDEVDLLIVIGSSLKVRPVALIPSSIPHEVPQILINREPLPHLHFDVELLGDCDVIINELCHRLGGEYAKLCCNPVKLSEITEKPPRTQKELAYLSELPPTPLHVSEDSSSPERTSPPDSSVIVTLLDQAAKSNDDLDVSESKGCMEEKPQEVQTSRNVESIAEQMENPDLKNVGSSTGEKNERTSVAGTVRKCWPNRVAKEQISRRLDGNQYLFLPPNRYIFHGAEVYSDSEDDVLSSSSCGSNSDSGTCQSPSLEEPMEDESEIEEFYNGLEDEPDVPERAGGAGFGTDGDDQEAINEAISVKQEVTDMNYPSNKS

[14] = tested on: Pseudomonas aeruginosa; assay: Antibacterial activity against Pseudomonas aeruginosa; assay type: functional
[15] = tested on: Staphylococcus aureus; assay: Antibacterial activity against methicillin resistant Staphylococcus aureus; assay type: functional
[16] = tested on: Staphylococcus epidermidis; assay: Antibacterial activity against methicillin resistant Staphylococcus epidermidis; assay type: functional
[17] = tested on: Enterococcus faecalis; assay: Antibacterial activity against Enterococcus faecalis; assay type: functional
[18] = tested on: Klebsiella pneumoniae; assay: Antibacterial activity against Klebsiella pneumoniae; assay type: functional

CC(C)Cc1ccc(C(C)C(=O)N2C(=O)N(C)C(C)(C)C2=O)cc1 (stereo unspecified)
Number of coughs [1]: 18.6
Activity [2]: 25%

O=C1CN(/N=C2\C(=O)N(Cc3ccc(F)cc3)c3ccccc32)C(=O)N1
MIC [3]: 6.25 µg/mL (≈ 17.7 µM)
MIC [4]: 12.5 µg/mL (≈ 35.5 µM)
MIC [5]: 6.25 µg/mL (≈ 17.7 µM)
MIC [6]: 6.25 to 12.5 µg/mL (≈ 17.7 to 35.5 µM)
MIC [7]: 12.5 µg/mL (≈ 35.5 µM)

CC(C)CC1NC(=O)N(OCc2ccc(Br)cc2)C1=O (stereo unspecified)
IC50 [8]: 0.15 µM

O=C1NC(CN2CCCC2)C(=O)N1c1c(Cl)cccc1Cl (stereo unspecified)
MIC [9]: 0.088 µM
MIC [10]: 0.044 µM (≈ 0.0144 µg/mL)

CC(C)Cc1ccc(C(C)C(=O)N2C(=O)CNC2=O)cc1 (stereo unspecified)
Number of coughs [1]: 18.3
Activity [2]: 24.51%

CC(C)CC1NC(=O)N(OCc2cccc(Cl)c2)C1=O (stereo unspecified)
IC50 [8]: 0.04 µM

COC(=O)CN1C(=O)N(CCCCN2CCN(c3ccccc3OC)CC2)C(c2ccccc2)(c2ccccc2)C1=O
IC50 [11]: 1.07 µM

CCN(CC)c1ccc(/C=C2\NC(=O)N(Cc3ccc(C)cc3)C2=O)cc1
IC50 [12]: 68.7 µM
IC50 [13]: 94 µM

CCCCCCCCCCCC(=O)N[C@@H](CCCCN)CN1CC(=O)N(c2cccc(Cl)c2)C1=O
MIC [14]: 1 µg/mL (≈ 1.97 µM)
MIC [15]: 0.5 µg/mL (≈ 0.986 µM)
MIC [16]: 0.5 µg/mL (≈ 0.986 µM)
MIC [9]: 1 µg/mL
MIC [17]: 0.5 µg/mL (≈ 0.986 µM)
MIC [18]: 0.78 µg/mL (≈ 1.54 µM)

O=C1CN(/N=C2\C(=O)N(Cc3cccc(F)c3)c3ccccc32)C(=O)N1
MIC [3]: 6.25 µg/mL (≈ 17.7 µM)
MIC [4]: 12.5 µg/mL (≈ 35.5 µM)
MIC [5]: 6.25 µg/mL (≈ 17.7 µM)
MIC [6]: 6.25 to 12.5 µg/mL (≈ 17.7 to 35.5 µM)
MIC [7]: 12.5 µg/mL (≈ 35.5 µM)

CC(C)Cc1ccc(C(C)C(=O)N2C(=O)CN(C)C2=O)cc1 (stereo unspecified)
Number of coughs [1]: 15.5
Activity [2]: 54.61%

CC(C)Cc1ccc(C(C)C(=O)O)cc1 (stereo unspecified) [IBUPROFEN]
Activity [2]: 28.07%

O=C1N/C(=C\c2ccc(N3CCCC3)cc2)C(=O)N1Cc1ccc(Cl)cc1
IC50 [12]: 38.8 µM
IC50 [13]: 38.6 µM

O=C1CN(/N=C2\C(=O)N(Cc3ccccc3F)c3ccccc32)C(=O)N1
MIC [3]: 6.25 µg/mL (≈ 17.7 µM)
MIC [4]: 12.5 µg/mL (≈ 35.5 µM)
MIC [5]: 6.25 µg/mL (≈ 17.7 µM)
MIC [6]: 6.25 to 12.5 µg/mL (≈ 17.7 to 35.5 µM)
MIC [7]: 12.5 µg/mL (≈ 35.5 µM)

COc1ccccc1N1CCN(CCCCN2C(=O)N(C)C(=O)C2(c2ccccc2)c2ccccc2)CC1
IC50 [11]: 7.36 µM

O=C1N/C(=C\c2ccc(O)c(Cl)c2)C(=O)N1Cc1ccc(F)cc1
IC50 [12]: 37.7 µM
IC50 [13]: 32.1 µM

CC(C)C1NC(=O)N(OCc2cccc(Cl)c2)C1=O (stereo unspecified)
IC50 [8]: 0.07 µM
